In article PMC12373846, “Hemoglobin as a pseudoperoxidase and drug target for oxidative stress-related diseases” (Signal Transduction and Targeted Therapy, 2025):

Assays:
[1] = system: APP/PS1 mice; experiment: Immunohistochemistry of hippocampus, APP/PS1 mice; assay type: in vivo, mouse
Description: For an animal model of AD, both sexes of 10- to 18-month-old APP/PS1 mice were maintained and used as previously described.[76],[77] To test the effects of novel H2O2-decomposing enhancers in the AD model, the mice were treated by i.p. injection with KDS12008 (3 mg/kg/day), KDS12017 (3 mg/kg/day), or KDS12025 (3 or 10 mg/kg/day) once per day for 1 or 2 weeks, depending on the experimental protocol. All drugs were dissolved in 200 μl of saline, and the amount of each drug was calculated on the basis of the weight (kg) of the mouse. Moreover, KDS12025 (3 mg/kg/day) was orally administered to the AD model for 2 weeks ad libitum.
The mice were deeply anesthetized with vaporized 1% isoflurane and placed into stereotaxic frames (RWD Life Science, China). Following an incision on the midline of the scalp, a hole was drilled into the skull above the hippocampus. AAV-GFAP104-GFP or AAV-GFAP104-DTR-GFP was bilaterally microinjected into the hippocampal CA1 region (AP, −2.0 mm; ML, ±1.5 mm; DV, −1.65 mm from the bregma). Diphtheria toxin (2 mg/ml) was administered for 16 days as previously described.[77] For shRNA knockdown, AAV-pSicoR-Hbβ-shRNA-mCherry or AAV-pSicoR-Sc-shRNA-mCherry was microinjected into the same coordinate system. A total of 0.8 µl of the virus was injected via a syringe pump (KD Scientific, USA). The injection procedures were implemented before 5 weeks of the experiments. For cell type-specific knockdown, AAV-pSico-Hbβ-shRNA-GFP or AAV-pSico-Sc-shRNA-GFP was combined with either AAV-CaMKII-Cre-mCherry for neuronal targeting or AAV-GFAP-Cre-mCherry for astrocyte targeting. The viruses were bilaterally injected into the hippocampus and substantia nigra via the same stereotaxic coordinates and injection procedures. All viruses used in this study were produced at the Institute for Basic Science virus facility (IBS virus facility, Korea). To investigate the effects of 0.1 mg/kg/day KDS12025, GiD mice were injected with diphtheria toxin (2 mg/ml) daily for 16 days. Concurrently, KDS12025 was administered ad libitum (0.1 mg/kg/day) during the same period.
The mice were deeply anesthetized with 2% isoflurane and positioned on the operating table. After the abdomen was opened and the heart was exposed, the […] were perfused with saline, followed by 4% paraformaldehyde (PFA) in 0.1 M PBS. The mice were decapitated, and the brains were excised from the skull. Excised brains were postfixed in 4% PFA overnight at 4 °C and dehydrated in 30% sucrose for 48 h. Coronal hippocampal sections were cut at 30 µm thickness with a cryostat and stored in storage solution. For the ALS experiments, lumbar spinal cords (L2–L5) were also carefully dissected and immediately immersed in 4% PFA for postfixation. The sections were fully washed in 0.1 M PBS and incubated for 1 h in blocking solution (0.3% Triton X-100, 2% donkey and goat serum in 0.1 M PBS). Next, a mixture of primary antibodies in the blocking solution was used for immunostaining on a shaker overnight at 4 °C. The sections were washed in PBS three times. After washing, the sections were incubated with the corresponding fluorescent secondary antibodies for 1 h at RT. DAPI staining was performed by adding a DAPI solution (1:2000) during the second washing step. After the washing step was complete, the sections were mounted on cover slides with mounting medium. A series of fluorescence images were obtained with an LSM900 (Zeiss, Germany) confocal microscope or Lattice SIM Elyra 7 (Zeiss, Germany). The 15–22 μm Z stack images in 1–2 μm steps were processed for image analysis, which was performed via the ImageJ (NIH, US) and ZEN digital imaging for light microscopy blue system (Zeiss, Germany) programs.

[2] = ROS-Glo H2O2 assay without HRP or Hb; assay type: biochemical; settings: ROS-Glo assay lacking HRP/Hb
Description: (§1) Hb (Sigma‒Aldrich, H7379), H2O2 (Sigma‒Aldrich, H1009), and Amplex Red reagents (Invitrogen, A12222) were obtained for the study. A 4 μM H2O2 solution was prepared in 50 mM sodium phosphate buffer (pH 7.2). Then, 49 μl of this mixture was mixed with 1 μl of the test compound in DMSO or distilled water. The mixture was combined with an assay mixture of Amplex Red reagent (20 mM stock to 0.1 mM) and HRP (200 U/ml stock to 0.2 U/ml) and added to the wells at 50 μl/well. After a 60-min incubation at 37 °C, resorufin production was quantified via a microplate fluorescence reader (SpectraMax iD5, Molecular Devices) at ex/em = 535/580 nm. The H2O2-decomposing activity was estimated via the following equation: (sample fluorescence-blank fluorescence)/(control […]-blank fluorescence) × 100. For the ROS-Glo assay, the H2O2 substrate solution and ROS-Glo detection solution were prepared according to the manufacturer’s instructions. 10 μM H2O2 and drugs were prepared as in the Amplex Red assay, with HRP, Hb, CAT, or GPx added as needed. The mixture was added to the wells at 100 μl/well and incubated for 60 min at 37 °C. H2O2 substrate solution was added, and the mixture was incubated at room temperature for 30 min. After the H2O2 substrate solution was added and incubated at room temperature for 30 min, the ROS-Glo detection solution was added, and the mixture was incubated for 15 min. Luminescence was measured via iD5 microplate readers. The H2O2-decomposing activity was estimated via the following equation: (sample luminescence-blank luminescence)/(control luminescence-blank luminescence) × 100. The U/ml was calculated on the basis of the amount of H2O2 reduced by Hb during the reaction, using μg/ml and U/mg.

[3] = biological target: T1, HRP (Armoracia rusticana, UniProt P00433); experiment: H2O2 assay with HRP (HRP-EC50); assay type: biochemical, horseradish; settings: Tables S2, S3; read-out: HRP-EC50
T1 sequence (P00433 31-353): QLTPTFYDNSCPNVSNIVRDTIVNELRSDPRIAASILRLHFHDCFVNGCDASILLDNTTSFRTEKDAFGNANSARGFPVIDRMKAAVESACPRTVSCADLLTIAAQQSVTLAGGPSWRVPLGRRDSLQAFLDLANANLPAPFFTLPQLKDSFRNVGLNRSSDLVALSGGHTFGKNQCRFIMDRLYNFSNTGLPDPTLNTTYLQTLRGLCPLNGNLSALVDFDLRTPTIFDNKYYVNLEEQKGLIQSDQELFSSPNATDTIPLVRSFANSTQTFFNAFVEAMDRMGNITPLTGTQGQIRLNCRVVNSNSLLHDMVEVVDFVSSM
Description: as §1

With CNc1ccc(NCCc2ccccc2OC)cc1.Cl [KDS12025, N^1-(2-methoxyphenethyl)-N^4-methylbenzene-1,4-diamine hydrochloride salt] the “mean Hbβ intensity in GFAP-positive areas” value ([1]; 3 mg/kg/day ad libitum, Fig. 5e) was “WT (70.03±1.523, n=55), APP (62.3±1.219, n=65), APP+KDS12025 (ad libitum) (68.67±2.358, n=54) One-way ANOVA with Tukey's multiple comparisons test, F(2,171) = 6.123, p = 0.003 WT vs. APP, p = 0.004; WT vs. APP+KDS12025 (ad libitum), p = 0.85; APP vs. APP+KDS12025 (ad libitum), p = 0.02”, the “mean GFAP intensity in GFAP-positive areas” value ([1]; 3 mg/kg/day ad libitum, Fig. 5f) was “WT (61.01±2.28, n=6), APP (114.3±9.536, n=6), APP+KDS12025 (ad libitum) (64.48±6.98, n=6) One-way ANOVA with Tukey's multiple comparisons test, F(2,14) = 17.24, p < 0.001 WT vs. APP, p < 0.001; WT vs. APP+KDS12025 (ad libitum), p = 0.89; APP vs. APP+KDS12025 (ad libitum), p < 0.001” and the “Sholl analysis, sum of intersections” value ([1]; 3 mg/kg/day ad libitum, Fig. 5g) was “WT (31.45±3.606, n=11), APP (63.19±5.017, n=16), APP+KDS12025 (ad libitum) (33.69±3.3, n=13) One-way ANOVA with Tukey's multiple comparisons test, F(2,37) = 18.10, p < 0.001 WT vs. APP, p < 0.001; WT vs. APP+KDS12025 (ad libitum), p = 0.94; APP vs. APP+KDS12025 (ad libitum), p < 0.001”. For the same molecule, the “Sholl analysis, ending radius” value ([1]; 3 mg/kg/day ad libitum, Fig. 5i) was “WT (110.0±6.606, n=11), APP (135.6±5.625, n=16), APP+KDS12025 (ad libitum) (103.1±7.794, n=13) One-way ANOVA with Tukey's multiple comparisons test, F(2,37) = 7.249, p = 0.002 WT vs. APP, p = 0.03; WT vs. APP+KDS12025 (ad libitum), p = 0.77; APP vs. APP+KDS12025 (ad libitum), p = 0.003”, the “Sholl analysis, number of intersections” value ([1]; 3 mg/kg/day ad libitum, Fig. 5j) was “Two-way ANOVA with Tukey's multiple comparison test, F (2,378) = 37.72, p < 0.001 WT (2.028, n=12), APP (4.318, n=17), APP+KDS12025 (ad libitum) (2.392, n=12) WT vs. APP, p < 0.001 (***); WT vs. APP+KDS12025 (ad libitum), p = 0.52; APP vs. APP+KDS12025 (ad libitum), p < 0.001 (^###)” and the “Sholl analysis, ramification index” value ([1]; 3 mg/kg/day ad libitum, Fig. 5h) was “WT (1.617±0.2177, n=11), APP (7.134±1.523, n=16), APP+KDS12025 (ad libitum) (2.808±0.6584, n=13) One-way ANOVA with Tukey's multiple comparisons test, F(2,37) = 6.945, p = 0.003 WT vs. APP, p = 0.004; WT vs. APP+KDS12025 (ad libitum), p = 0.76; APP vs. APP+KDS12025 (ad libitum), p = 0.02”. The “mean intensity of GABA in GFAP-positive area” value ([1]; 3 mg/kg/day ad libitum, Fig. S11c) was “WT (41.73±1.1951, n=19), APP (50.90±1.074, n=41), APP+KDS12025 (ad libitum) (44.45±1.015, n=28) One-way ANOVA with Tukey's multiple comparisons test, F(2,85) = 14.24, p < 0.001 WT vs. APP, p < 0.001; WT vs. APP+KDS12025 (ad libitum), p = 0.38; APP vs. APP+KDS12025 (ad libitum), p < 0.001”, the “mean intensity of 8-OHdG in GFAP-positive area” value ([1]; 3 mg/kg/day ad libitum, Fig. S11d) was “WT (1903±72.86, n=32), APP (2435±66.11, n=58), APP+KDS12025 (ad libitum) (1951±48.61, n=57) One-way ANOVA with Tukey's multiple comparisons test, F(2,144) = 23.42, p < 0.001 WT vs. APP, p < 0.001; WT vs. APP+KDS12025 (ad libitum), p = 0.88; APP vs. APP+KDS12025 (ad libitum), p < 0.001” and the “mean intensity of Iba1 in the hippocampus” value ([1]; 3 mg/kg/day i.p., Fig. S10e) was 1343±38.44. For the same molecule, the “mean intensity of GFAP in the hippocampus” value (“mean intensity of GFAP” below) ([1]; 3 mg/kg/day i.p., Fig. S10d) was 1190±87.29, the “mean intensity of GFAP” value ([1]; 3mpk i.p., Fig. S10i) was 59.33±6.459 and the “mean intensity of GFAP” value ([1]; 10mpk i.p., Fig. S10i) was 56.71±4.775. The GFAP-positive area ([1]; APP+ScRNA+KDS12025, Fig. 6i) was 142.4±8.715, the GFAP intensity ([1]; APP+ScRNA+KDS12025, Fig. 6j) was 124.3±1.773 and the “Hbβ intensity in GFAP-positive areas” value ([1]; APP+ScRNA+KDS12025, Fig. 6h) was 10.10±0.4531. The “Sholl analysis, sum of intersections” value ([1]; APP+ScRNA+KDS12025, Fig. S16e) was 142.4±8.715, the “Sholl analysis, ending radius” value ([1]; APP+ScRNA+KDS12025, Fig. S16f) was 54.48±2.319 and the “Sholl analysis, number of intersections” value ([1]; APP+ScRNA+KDS12025, Fig. S16g) was 4.984±0.7027. The GFAP-positive area ([1]; APP+shHbβ+KDS12025, Fig. 6i) was 234.3±16.93, the GFAP intensity ([1]; APP+shHbβ+KDS12025, Fig. 6j) was 146.8±2.262 and the “Hbβ intensity in GFAP-positive areas” value ([1]; APP+shHbβ+KDS12025, Fig. 6h) was 6.275±0.4473. For the same molecule, the “Sholl analysis, sum of intersections” value ([1]; APP+shHbβ+KDS12025, Fig. S16e) was 234.3±16.93, the “Sholl analysis, ending radius” value ([1]; APP+shHbβ+KDS12025, Fig. S16f) was 100.4±6.075 and the “Sholl analysis, number of intersections” value ([1]; APP+shHbβ+KDS12025, Fig. S16g) was 5.314±0.9626. The “Hbβ intensity in GFAP-positive areas” value ([1]; APP+shHbβ::CaMKII+KDS12025, Fig. 6m) was 110.5±1.59, the GFAP-positive area ([1]; APP+shHbβ::CaMKII+KDS12025, Fig. 6n) was 55.98±5.45 and the GFAP intensity ([1]; APP+shHbβ::CaMKII+KDS12025, Fig. 6o) was 131.4±3.56. For the same molecule, the “Sholl analysis, sum of intersections” value ([1]; APP+shHbβ::CaMKII+KDS12025, Fig. S17b) was 42.1±3.9, the “Sholl analysis, ending radius” value ([1]; APP+shHbβ::CaMKII+KDS12025, Fig. S17c) was 80.3±6.8 and the “Hbβ intensity in GFAP-positive areas” value ([1]; APP+shHbβ::GFAP+KDS12025, Fig. 6m) was 87.46±1.26. The GFAP-positive area ([1]; APP+shHbβ::GFAP+KDS12025, Fig. 6n) was 134.3±10.91, the GFAP intensity ([1]; APP+shHbβ::GFAP+KDS12025, Fig. 6o) was 152.1±5.50 and the “Sholl analysis, sum of intersections” value ([1]; APP+shHbβ::GFAP+KDS12025, Fig. S17b) was 57.9±3.7. For the same molecule, the “Sholl analysis, ending radius” value ([1]; APP+shHbβ::GFAP+KDS12025, Fig. S17c) was 109.8±5.4, the “H2O2-decomposing activity without HRP or Hb” value [2] was “neither KDS12017 nor KDS12025 degrades H2O2 without Hb” and the EC50 [3] was 529 nM.
